Test results as given in patent publication EP0429372A1, “2-Azolyl nicotinate derivatives as herbicides” (RHONE-POULENC AGROCHIMIE, priority 1989, dated 1991).
Read-outs that look alike come from different tables or passages of the source.

Key:
Format in all cases: in vivo
Digitaria sanguinalis = test: Example B: post-emergence herbicidal application, pot test; conditions: 4000 g/ha, 576 h
Description: (§1) Dans des pots de 7 x 7 x 8 cm remplis de terre agricole légère, on sème un nombre de graines déterminé en fonction de l'espèce végétale et de la grosseur de la graine.
(§2) On recouvre ensuite les graines d'une couche de terre d'environ 3 mm d'épaisseur et on laisse germer la graine jusqu'à ce qu'elle donne naissance à une plantule au stade convenable. Le stade de traitement pour les graminées est le stade "deuxième feuille en formation ". Le stade de traitement pour les dicotylédones, est le stade "cotylédons étalés, première feuille vraie en développement".
(§3) Les pots sont alors traités par pulvérisation de bouillie en quantité correspondant à une dose volumique d'application de 500 l/ha et contenant la matière active à la concentration désirée.
(§4) La bouille a été préparée de la même manière qu'à l'exemple A.
(§5) Les pots traités sont ensuite placés dans des bacs destinés à recevoir l'eau d'arrosage, en subirrigation, et maintenus pendant 24 jours à température ambiante sous 70 % d'humidité relative.
(§6) Au bout de 24 jours, on mesure un pourcentage (D) de destruction du nombre de pieds dans le pot traité par rapport au nombre de plantes dans les pots non traités (témoin). On mesure, sur les plantes traitées restantes, le pourcentage de réduction de taille (RT) par rapport aux plantes témoin.
(§7) Le pourcentage du volume foliaire non détruit par le produit est donc donné par la formule : [formula]
(§8) Cette valeur A est transformée en notation de 0 à 5 selon l'échelle suivante :
(§9) Les résultats obtenus sont présentés après le tableau A pour des doses d'application de 4000 g/ha.

Echinochloa crusgalli = test: as above; conditions: 4000 g/ha, 576 h
Description: as §1, §2, §3, §4, §5, §6, §7, §8, §9

Ipomea purpurea = test: as above; conditions: 4000 g/ha, 576 h
Description: as §1, §2, §3, §4, §5, §6, §7, §8, §9

Sinapis alba = test: as above; conditions: 4000 g/ha, 576 h
Description: as §1, §2, §3, §4, §5, §6, §7, §8, §9

Solanum nigrum [1] = test: as above; conditions: 4000 g/ha, 576 h
Description: as §1, §2, §3, §4, §5, §6, §7, §8, §9

Ipomea pupurea = test: Example C: selectivity test in major crops, post-emergence application; conditions: 576 h
Description: as §1
(§10) On recouvre ensuite les graines d'une couche de terre d'environ 3 mm d'épaisseur et on laisse germer la graine jusqu'à ce qu'elle donne naissance à une plantule au stade convenable. Le stade de traitement pour les graminées est le stade "deuxième feuille en formation". Le stade de traitement pour les dicotylédones, est le stade "cotylédons étalés, première feuille vraie en développement".
as §3
(§11) La bouillie a été préparée de la même manière qu'à l'exemple A.
as §5, §6
(§12) Le pourcentage de volume foliaire non détruit par le produit est donc donné par la formule : [formula]
as §8
(§13) Ainsi, un produit est jugé comme sélectif vis à vis de la culture lorsque la valeur A notée est de 0 ou 1.
(§14) Les résultats obtenus sont présentés dans l'exemple C pour des doses d'application comprises entre 0,5 et 4 kg de matière active par hectare selon les produits.

Oryza sativa = test: as above; conditions: crop (Riz), 24 days, score 0-5, 0 or 1 = selective; note: ranges in brackets are in %
Description: as §1, §10, §3, §11, §5, §6, §12, §8, §13, §14

Sesbania exaltata = test: as above; conditions: 576 h
Description: as §1, §10, §3, §11, §5, §6, §12, §8, §13, §14

Solanum nigrum [2] = test: as above; conditions: 576 h
Description: as §1, §10, §3, §11, §5, §6, §12, §8, §13, §14

Triticum aestivum = test: as above; conditions: crop (Blé), 24 days, score 0-5, 0 or 1 = selective; note: ranges in brackets are in %
Description: as §1, §10, §3, §11, §5, §6, §12, §8, §13, §14

Viola tricolor = test: as above; conditions: 576 h
Description: as §1, §10, §3, §11, §5, §6, §12, §8, §13, §14

Xanthium pennsylvanicum = test: as above; conditions: 576 h
Description: as §1, §10, §3, §11, §5, §6, §12, §8, §13, §14

Zea mays = test: as above; conditions: crop (Maïs), 24 days, score 0-5, 0 or 1 = selective; note: ranges in brackets are in %
Description: as §1, §10, §3, §11, §5, §6, §12, §8, §13, §14

Chrysanthemum segetum = conditions: post-emergence, 576 h
Description: as §1, §10, §3, §11, §5, §6, §12, §8, §13, §14

Convolvulus arvensis = conditions: post-emergence, 576 h
Description: as §1, §10, §3, §11, §5, §6, §12, §8, §13, §14

Polygonum convolvulus = conditions: 576 h
Description: as §1, §10, §3, §11, §5, §6, §12, §8, §13, §14

mauvaises herbes [3] = test: Procedure 2 d): weed control, pre-emergence; conditions: 4000 g/ha (procédé 2D), visual rating 20 to 24 days after spraying, vs control pots
Description: (§15) Des quantités appropriées des composés d'essai ont été dissoutes dans de l'acétone pour obtenir des solutions équivalant à des taux d'application de 250, 1000 ou 4000 g de composé d'essai par hectare (g/ha).
Les graines ont été semées dans des pots en matière plastique de 70 mm de côté et 75 mm de profondeur, dans de la terre non stérile provenant de Boarded Barns Farm ou un type de terre similaire provenant d'une source convenable. Les quantités de graines par pot étaient les suivantes :
Les composés de la présente invention ont été appliqués à la surface du sol, contenant les semences, de la manière décrite dans le paragraphe (a). Un seul pot de chaque plante cultivée et de chaque mauvaise herbe a été attribué à chaque traitement, en association avec des témoins n'ayant pas subi de pulvérisation et des témoins ayant subi une pulvérisation avec de l'acétone seule. Après traitement, les pots ont été maintenus dans une serre et ont été arrosés par aspersion pendant 3 jours, puis par une sous- irrigation controlée. L'évaluation visuelle des dégats infligés aux plantes cultivées a été effectuée 20 à 24 jours après pulvérisation. Les résultats ont été exprimés en pourcentage de réduction de croissance ou d'endommagement des plantes cultivées ou des mauvaises herbes, comparativement aux plantes présentes dans les pots témoins.

mauvaises herbes [4] = conditions: post-emergence, 4000 g/ha
Description: as §15
Les mauvaises herbes et les plantes cultivées ont été semées directement dans du compost de mise en pot John Innes dans des pots de 75 mm de profondeur et 70 mm de côté, sauf en ce qui concerne l'espèce du genre Amaranthus qui a été repiquée au stade de jeunes plants de semis et transférée dans les pots une semaine avant plulvérisation. Puis les plantes ont été cultivées dans la serre jusqu'à ce qu'elles soient prêtres à subir une pulvérisation avec les composés d'essai. Le nombre de plantes par pot étaient les suivants :
Les composés d'essai ont été appliqués aux plantes de la manière décrite dans le paragraphe (a). Un seul pot de chaque espèce de plante cultivée et de chaque espèce de mauvaise herbe a été attribué à chaque traitement, en association avec des témoins n'ayant pas subi de pulvérisation et des témoins ayant subi une pulvérisation avec de l'acétone seule.
Après traitement, les pots ont été maintenus dans une serre et ont été arrosés une fois par aspersion au bout de 24 heures, puis par sous - irrigation contrôlée. L'évaluation visuelle des dégâts infligés aux plantes cultivées et de la destruction des mauvaises herbes a été effectué 20 à 24 jours après pulvérisation. Les résultats ont été exprimés en pourcentage de réduction de croissance ou d'endommagement des plantes cultivées ou des mauvaises herbes, comparativement aux plantes présentes dans les pots témoins.

Row | Compound | ACTIVITE DE POST-LEVEE DIG (Digitaria sanguinalis) | ACTIVITE DE POST-LEVEE ECH (Echinochloa crusgalli) | ACTIVITE DE POST-LEVEE IPO (Ipomea purpurea) | ACTIVITE DE POST-LEVEE SIN (Sinapis alba) | ACTIVITE DE POST-LEVEE SOL (Solanum nigrum [1]) | ACTIVITE HERBICIDE DE POST LEVEE I P O (Ipomea pupurea; 2000 g/ha) | ACTIVITE HERBICIDE DE POST LEVEE O R Y (Oryza sativa; dose 2 kg/ha) | ACTIVITE HERBICIDE DE POST LEVEE S E S (Sesbania exaltata; 2000 g/ha) | ACTIVITE HERBICIDE DE POST LEVEE S O L (Solanum nigrum [2]; 2000 g/ha) | ACTIVITE HERBICIDE DE POST LEVEE T R Z (Triticum aestivum; dose 2 kg/ha) | ACTIVITE HERBICIDE DE POST LEVEE V I O (Viola tricolor; 2000 g/ha) | ACTIVITE HERBICIDE DE POST LEVEE X A N (Xanthium pennsylvanicum; 2000 g/ha) | ACTIVITE HERBICIDE DE POST LEVEE Z E A (Zea mays; dose 2 kg/ha) | also measured
1 | CN(C)S(=O)(=O)n1nc(-c2ccccc2)nc1-c1ncccc1C(=O)O [compound 6] | 0 (90 à 100) | 0 (90 à 100) | 4 (10 à 30) | 5 (O à 10) | 5 (O à 10) | 5 (O à 10) | 0 (90 à 100) | 5 (O à 10) | 5 (O à 10) | 0 (90 à 100) | 4 (10 à 30) | 4 (10 à 30) | 0 (90 à 100) | –
2 | CN(C)S(=O)(=O)n1c(-c2ncccc2C(=O)O)nc2c(Cl)cccc21 [compound 79] | – | – | – | – | – | 4 (10 à 30) | 0 (90 à 100) | 2 (50 à 70) | 3 (30 à 50) | 0 (90 à 100) | 1 (70 à 90) | 1 (70 à 90) | 0 (90 à 100) | ACTIVITE HERBICIDE DE POST LEVEE C H Y (Chrysanthemum segetum; 2000 g/ha): 4 (10 à 30); ACTIVITE HERBICIDE DE POST LEVEE C O N (Convolvulus arvensis; 2000 g/ha): 4 (10 à 30); ACTIVITE HERBICIDE DE POST LEVEE P O L (Polygonum convolvulus; 2000 g/ha): 3 (30 à 50)
3 | CN(C)S(=O)(=O)n1c(-c2ncccc2C(=O)O)nc2cc(Cl)ccc21 [compound 84] | 0 (90 à 100) | 0 (90 à 100) | 3 (30 à 50) | 5 (O à 10) | 5 (O à 10) | – | – | – | – | – | – | – | – | ACTIVITE HERBICIDE DE POST LEVEE I P O (Ipomea pupurea; 1000 g/ha): 4 (10 à 30); ACTIVITE HERBICIDE DE POST LEVEE O R Y (Oryza sativa; dose 1 kg/ha): 1 (70 à 90); ACTIVITE HERBICIDE DE POST LEVEE S E S (Sesbania exaltata; 1000 g/ha): 5 (O à 10); ACTIVITE HERBICIDE DE POST LEVEE S O L (Solanum nigrum [2]; 1000 g/ha): 5 (O à 10); ACTIVITE HERBICIDE DE POST LEVEE T R Z (Triticum aestivum; dose 1 kg/ha): 1 (70 à 90); ACTIVITE HERBICIDE DE POST LEVEE V I O (Viola tricolor; 1000 g/ha): 2 (50 à 70); ACTIVITE HERBICIDE DE POST LEVEE X A N (Xanthium pennsylvanicum; 1000 g/ha): 3 (30 à 50); ACTIVITE HERBICIDE DE POST LEVEE Z E A (Zea mays; dose 1 kg/ha): 1 (70 à 90); ACTIVITE HERBICIDE DE POST LEVEE C H Y (Chrysanthemum segetum; 1000 g/ha): 5 (O à 10); ACTIVITE HERBICIDE DE POST LEVEE C O N (Convolvulus arvensis; 1000 g/ha): 5 (O à 10); ACTIVITE HERBICIDE DE POST LEVEE P O L (Polygonum convolvulus; 1000 g/ha): 4 (10 à 30)
4 | COc1cccc2c1nc(-c1ncccc1C(=O)O)n2S(=O)(=O)N(C)C [compound 90] | – | – | – | – | – | – | – | – | – | – | – | – | – | réduction de la croissance d'une ou plusieurs des espèces de mauvaises herbes (mauvaises herbes [3]): ≥ 90%; destruction d'une ou plusieurs des espèces de mauvaises herbes (mauvaises herbes [4]): ≥ 90%
